According to patent publication US9808482B2, “Sulphated hyaluronic acids as regulator agents of the cytokine activity” (FIDIA FARMACEUTICI S.p.A., priority 2009, dated 2017):

How the values were obtained:
[1] = test system: Vesicular stomatitis virus; type: cell-based; details: E6SM cells; samples average MW 200 KD; FIG. 11
IL-1 receptor = target: T1, IL-1 receptor (Mus musculus, UniProt P13504); assay: Inhibition of the binding of 125I-IL-1 to its receptor on 3T3 fibroblasts (radioligand binding); set-up: species or system mice; details: HAS degree 3, both medium and low MW; 3T3 cells, 1 mg/ml, 125I-IL-1 10 pM, 37° C. 2 hours; FIG. 4
T1 construct: the line of murine fibroblasts 3T3 was used, sensitive to the cytotoxic activity of IL-1, expressing its relative receptor; endogenous in cells; host or cells: 3T3 murine fibroblasts
T1 sequence (P13504 20-576): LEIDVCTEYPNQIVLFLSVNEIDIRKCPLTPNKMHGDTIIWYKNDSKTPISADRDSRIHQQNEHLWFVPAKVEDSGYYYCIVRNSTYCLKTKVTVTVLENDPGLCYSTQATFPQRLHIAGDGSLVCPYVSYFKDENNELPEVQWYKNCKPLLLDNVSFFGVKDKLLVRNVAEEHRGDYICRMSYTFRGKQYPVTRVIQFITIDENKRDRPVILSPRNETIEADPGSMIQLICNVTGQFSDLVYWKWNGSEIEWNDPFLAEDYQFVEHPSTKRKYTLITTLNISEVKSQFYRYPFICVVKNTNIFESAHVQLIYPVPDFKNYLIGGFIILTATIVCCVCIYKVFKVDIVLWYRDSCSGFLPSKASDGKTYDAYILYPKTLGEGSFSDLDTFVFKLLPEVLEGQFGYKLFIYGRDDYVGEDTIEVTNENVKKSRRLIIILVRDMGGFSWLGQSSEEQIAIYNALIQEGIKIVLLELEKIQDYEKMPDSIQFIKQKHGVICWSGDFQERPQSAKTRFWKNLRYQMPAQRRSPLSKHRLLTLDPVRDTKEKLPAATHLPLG
Experimental: The experimental procedure was effected as described in Chin J et al., J Exp Med, 1987, 165:70-86. In short, the line of murine fibroblasts 3T3 was used, sensitive to the cytotoxic activity of IL-1, expressing its relative receptor. […] At the end of the incubation, the cells were washed with phosphate buffer, then dissolved in 2.5 M of NaOH and counted in a γ-counter.

IL-6 receptor = target: T2, IL-6 receptor (Homo sapiens, UniProt P08887); assay: Inhibition of the binding of 125I-IL-6 to its receptor on human myeloma U266 (radioligand binding); details: HAS degree 3, both medium and low MW; U266 cells, 1 mg/ml, 125I-IL-6 0.08 nM, 4° C. 16 hours; FIG. 5
T2 construct: the line of human myeloma U266 was used, sensitive to the cytotoxic activity of IL-6, expressing its relative receptor; endogenous in cells; host or cells: U266 human myeloma cells
T2 sequence (P08887 20-468): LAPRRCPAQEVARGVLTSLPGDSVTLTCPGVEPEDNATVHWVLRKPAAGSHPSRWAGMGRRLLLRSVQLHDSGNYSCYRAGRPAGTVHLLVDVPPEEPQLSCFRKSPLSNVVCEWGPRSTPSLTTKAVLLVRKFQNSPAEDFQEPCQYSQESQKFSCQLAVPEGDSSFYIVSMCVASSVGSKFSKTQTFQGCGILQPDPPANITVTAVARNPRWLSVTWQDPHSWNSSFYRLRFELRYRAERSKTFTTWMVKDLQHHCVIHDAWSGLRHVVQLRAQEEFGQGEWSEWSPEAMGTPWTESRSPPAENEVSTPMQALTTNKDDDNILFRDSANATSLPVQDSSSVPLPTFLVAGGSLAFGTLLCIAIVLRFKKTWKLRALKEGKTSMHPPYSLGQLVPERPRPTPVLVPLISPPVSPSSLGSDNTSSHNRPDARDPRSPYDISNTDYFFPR
Experimental: The experimental procedure was effected as described in Taga T. et al., J Exp Med, 1987, 166:967-981. In short, the line of human myeloma U266 was used, sensitive to the cytotoxic activity of IL-6, expressing its relative receptor. […] At the end of the incubation, the cells were washed with phosphate buffer, centrifuged at 9,000 rpm and the pellet counted in a γ-counter.

IL-10 = assay: Protein synthesis of IL-10 in human PBMC; type: cell-based; details: 0.1 or 1 mg/ml, 24 hours, FIG. 9 (HAS1, HAS3)
Experimental: For these experimentations, mononucleate cells of human peripheral blood (PBMC) were adopted, deriving from many different donors for evaluating the effect of HAS on the production of the cytokines listed above, using: • non-sulfated HA (average MW: 200 KD), • HAS1 and HAS3 (prepared as described in Examples 1-3 (average MW: 200 KD). […] At day zero 100,000 cells were seeded per well (using plates with 96 wells) in 200 μl of medium RPMI 1640, to which 10% of fetal bovine serum, HEPES 10 mM, Glutamine 2 mM, 1% Penicillin-Streptomycin 100 U/ml, had been added. The effect of all the samples was evaluated on non-treated PBMC with agents which stimulate the synthesis of cytokines, or stimulated with Lipopolysaccharide LPS (10 μg/ml) (highly pro-inflammatory) or with Phytohemagglutinin PHA (10 μg/ml) (a substance capable of stimulating the lymphocytes to divide themselves), both agents capable of stimulating the synthesis of cytokines. The cells were treated separately with the three compounds at a concentration of 0.1 mg/ml or 1 mg/ml. After 24 hours of incubation at 37° C. […] The quantification of the inflammation mediators was effected by means of the SearchLight® technology, using a Custom Human 9-Plex Array plate following the protocol indicated by the supplier in the technical card.

Which “antiviral activity vs VSV (inhibition of cytopathogenicity)” value [1] does the source give for `Nc1nc2c(ncn2COCCO)c(=O)[nH]1` [acyclovir] here?
Its value is “inactive”.

sulfated hyaluronic acid [HAS] was tested. Which “inhibition of the binding of IL-1 to its receptor” value (IL-1 receptor) did it give?
Its value is 30%.

And the “inhibition of the binding of IL-6 to its receptor” value (IL-6 receptor)?
The value was “up to 100%”.

What about the “production of IL-10” value (IL-10) of the same molecule?
Its value is “evident stimulus”.
